Results published in PMC12198407, “Preclinical and first-in-human of purinostat mesylate, a novel selective HDAC I/IIb inhibitor, in relapsed/refractory multiple myeloma and lymphoma” (Signal Transduction and Targeted Therapy, 2025).
Values joined by “and” are separate entries in the source; they are usually repeats but may differ in a detail not shown here. Identical values can stand only once. Like-named read-outs stand apart in the source and are kept apart here.

Columns and labels:
[1] = Safety pharmacology, ECG and blood pressure; type: in vivo, Beagle dogs; settings: 3.6 mg/kg i.v.
Experimental: In the 1.2 and 3.6 mg/kg groups, transient increases in heart rate were observed, and in the 3.6 mg/kg group, a transient and reversible prolongation of QT interval (9.6%) was also noted. Additionally, there were no significant effects observed on other qualitative and quantitative ECG parameters or blood pressure in the dogs. […] In the 90 mg/kg group, reduced locomotor activity and decreased standing frequency were also observed, but these effects returned to baseline after 24 hours. No significant effects were noted on other neurological behaviors in rats, and no impacts on the respiratory system were observed.

[2] = Pharmacokinetics, intravenous; type: in vivo, SD rats; settings: for AUC(0-t) / half-life / Vd / clearance / C0: both sexes, SD, rat, plasma, iv; for Vd: read-out: Vdss; for clearance: read-out: plasma clearance (CL); for increase in AUC0-last for tenfold increase in dose: 1 to 10 mg/kg
Experimental: After a single intravenous injection of Purinostat Mesylate at doses of 1, 3, and 10 mg/kg, the average initial concentrations (C0) in male and female SD rats were 736 ± 66.5, 2880 ± 566, and 11500 ± 1790 ng/mL, respectively. […] The half-lives (T1/2) were 3.79 ± 0.511, 4.21 ± 0.248, and 6.24 ± 1.57 min, respectively. The area under the curve (AUC0-last) values were 55.3 ± 3.68, 248 ± 36.1, and 1280 ± 122 ng.h/mL, respectively. After daily intravenous injections of 3 mg/kg Purinostat Mesylate for 7 consecutive days, the average AUC0-last on day 7 for both male and female rats was 332 ± 43.6 ng.h/mL.

[3] = Pharmacokinetics in plasma and tumor, HCT116 tumor-bearing mice; type: in vivo, nude mice
Experimental: The mean residence time (MRT) was 0.51 ± 0.06 hours in plasma and 39.48 ± 4.74 hours in tumor.

[4] = Bone marrow micronucleus test; type: in vivo, NIH mice; settings: 20, 40, 60, 80 mg/kg i.v. daily for 3 days
Experimental: In this experiment, 90 SPF-grade NIH mice (half male and half female) were randomly divided into 7 groups: a negative control group (0.9% sodium chloride injection, intravenous injection, 10 mL/kg), an excipient control group (blank formulation, intravenous injection, 10 mL/kg), a positive control group (cyclophosphamide 40 mg/kg, intraperitoneal injection, 10 mL/kg), and four groups for intravenous injection of Purinostat Mesylate at low, medium, high, and highest doses (20, 40, 60, and 80 mg/kg, intravenous injection, 10 mL/kg). The negative control and positive control groups each consisted of 20 mice, while the other groups each consisted of 10 mice, with an equal number of males and females. Mice in each group were administered the specified doses once daily for 3 consecutive days, while the positive control group received only a single dose. Twenty to twenty-four hours after the last administration, all mice in each group were euthanized, and femoral bone marrow smears were prepared. The smears were stained with Giemsa and observed under an oil immersion microscope. For each mouse, 4000 polychromatic erythrocytes (PCEs) were counted to calculate the micronucleus incidence (‰), while 500 bone marrow erythrocytes were counted to determine the ratio of polychromatic erythrocytes to total erythrocytes.

[5] = system: primary MM cells from relapsed patients A and B; experiment: Cell apoptosis analysis, primary cells; type: cell-based, human; settings: 5 nM, 48 h
Experimental: (§1) CD138^+, CD38^+, or CD20^+ primary cells were obtained from plasma cell leukemia patients and DLBCL patients who had relapsed after multiple drug therapies. These patient samples were sourced from West China Hospital and had been approved by the clinical ethics committee of West China Hospital of Sichuan University (Chengdu, China). The clinical information of these patients was summarized in Supplementary Table 2. The patient primary cells were cultured in 6-well plates at a density of 1×10^6 cells/mL, and treated with control, PM, panobinostat, Pom and DXM at indicated concentrations for 48 hours. CD138, CD38, and CD20 monoclonal antibodies, Annexin V-APC and 7AAD apoptosis detection kits were used following the manufacturer’s instructions. The apoptosis cells were analyzed by flow cytometry (Thermo, AttuneTMNxT).

[6] = system: diffuse large B-cell lymphoma (DLBCL) cells from patient C; experiment: Cell apoptosis analysis, primary cells; type: cell-based, human; settings: 5 nM, 48 h
Experimental: as §1

[7] = target: HDAC9 (Homo sapiens, UniProt Q9UKV0); experiment: HDAC enzyme activity in vitro; type: biochemical
Sequence of HDAC9 (Q9UKV0 whole entry): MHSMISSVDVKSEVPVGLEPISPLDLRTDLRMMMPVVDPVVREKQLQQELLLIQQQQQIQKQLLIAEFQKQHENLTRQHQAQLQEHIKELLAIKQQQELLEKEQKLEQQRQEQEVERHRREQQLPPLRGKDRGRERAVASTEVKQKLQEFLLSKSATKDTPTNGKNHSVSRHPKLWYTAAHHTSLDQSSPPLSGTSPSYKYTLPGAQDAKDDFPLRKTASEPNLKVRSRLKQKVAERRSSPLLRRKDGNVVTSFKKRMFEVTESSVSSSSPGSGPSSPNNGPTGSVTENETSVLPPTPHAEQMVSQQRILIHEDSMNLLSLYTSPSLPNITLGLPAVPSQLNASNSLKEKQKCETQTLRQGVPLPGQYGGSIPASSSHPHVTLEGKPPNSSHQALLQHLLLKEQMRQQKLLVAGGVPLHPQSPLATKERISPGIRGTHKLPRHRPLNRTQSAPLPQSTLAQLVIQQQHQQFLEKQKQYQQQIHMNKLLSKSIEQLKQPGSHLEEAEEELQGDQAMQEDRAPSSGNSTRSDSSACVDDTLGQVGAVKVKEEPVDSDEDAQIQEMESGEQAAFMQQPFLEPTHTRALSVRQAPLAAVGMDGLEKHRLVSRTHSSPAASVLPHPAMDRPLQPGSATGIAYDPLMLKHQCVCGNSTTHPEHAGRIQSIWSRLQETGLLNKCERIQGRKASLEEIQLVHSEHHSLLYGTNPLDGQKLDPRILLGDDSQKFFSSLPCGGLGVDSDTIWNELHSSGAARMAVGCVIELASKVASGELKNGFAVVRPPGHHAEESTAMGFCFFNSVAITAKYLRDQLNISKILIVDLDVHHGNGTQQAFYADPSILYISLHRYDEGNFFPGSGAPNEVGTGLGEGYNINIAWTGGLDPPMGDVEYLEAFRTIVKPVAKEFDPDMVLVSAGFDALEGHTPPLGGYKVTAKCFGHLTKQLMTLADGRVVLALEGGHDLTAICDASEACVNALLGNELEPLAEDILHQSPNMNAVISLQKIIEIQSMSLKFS

[8] = target: HDAC5 (Homo sapiens, UniProt Q9UQL6); experiment: HDAC enzyme activity in vitro; type: biochemical
Sequence of HDAC5 (Q9UQL6 whole entry): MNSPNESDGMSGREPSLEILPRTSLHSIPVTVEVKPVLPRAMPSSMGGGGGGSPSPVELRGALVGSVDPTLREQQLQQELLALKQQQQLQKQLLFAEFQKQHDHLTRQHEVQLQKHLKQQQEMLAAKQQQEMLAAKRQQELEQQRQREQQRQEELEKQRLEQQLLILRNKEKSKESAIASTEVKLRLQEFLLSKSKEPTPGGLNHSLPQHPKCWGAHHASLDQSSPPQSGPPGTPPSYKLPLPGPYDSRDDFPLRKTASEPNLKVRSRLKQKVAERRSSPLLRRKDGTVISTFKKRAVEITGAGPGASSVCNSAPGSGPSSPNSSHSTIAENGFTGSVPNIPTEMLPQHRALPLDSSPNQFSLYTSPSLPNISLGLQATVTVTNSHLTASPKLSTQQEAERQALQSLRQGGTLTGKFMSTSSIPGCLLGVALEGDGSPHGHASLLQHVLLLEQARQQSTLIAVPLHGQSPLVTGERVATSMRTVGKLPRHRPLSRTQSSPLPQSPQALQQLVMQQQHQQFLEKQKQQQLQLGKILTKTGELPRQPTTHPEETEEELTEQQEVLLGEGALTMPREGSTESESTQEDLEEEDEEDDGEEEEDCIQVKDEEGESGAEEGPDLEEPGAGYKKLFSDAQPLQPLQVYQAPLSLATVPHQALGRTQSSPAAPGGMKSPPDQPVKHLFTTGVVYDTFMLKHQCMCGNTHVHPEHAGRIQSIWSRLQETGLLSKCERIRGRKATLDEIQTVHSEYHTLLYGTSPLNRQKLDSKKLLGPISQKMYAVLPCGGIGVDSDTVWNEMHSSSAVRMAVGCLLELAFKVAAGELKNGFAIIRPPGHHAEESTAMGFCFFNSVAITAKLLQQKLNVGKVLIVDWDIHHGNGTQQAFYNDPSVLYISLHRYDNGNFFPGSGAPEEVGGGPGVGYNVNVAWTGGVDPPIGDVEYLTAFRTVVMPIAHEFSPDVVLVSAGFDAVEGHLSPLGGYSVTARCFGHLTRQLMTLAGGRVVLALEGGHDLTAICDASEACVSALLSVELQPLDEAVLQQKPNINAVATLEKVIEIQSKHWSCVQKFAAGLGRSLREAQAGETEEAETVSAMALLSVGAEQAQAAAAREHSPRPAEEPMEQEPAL

[9] = target: T1, CYP3A4 (Homo sapiens, UniProt P08684); experiment: CYP inhibition, human liver microsomes; type: in vitro ADME
T1 construct: human liver microsomal cytochrome P450 isoenzymes; from tissue; host or cells: human liver microsomes
T1 sequence (P08684 whole entry): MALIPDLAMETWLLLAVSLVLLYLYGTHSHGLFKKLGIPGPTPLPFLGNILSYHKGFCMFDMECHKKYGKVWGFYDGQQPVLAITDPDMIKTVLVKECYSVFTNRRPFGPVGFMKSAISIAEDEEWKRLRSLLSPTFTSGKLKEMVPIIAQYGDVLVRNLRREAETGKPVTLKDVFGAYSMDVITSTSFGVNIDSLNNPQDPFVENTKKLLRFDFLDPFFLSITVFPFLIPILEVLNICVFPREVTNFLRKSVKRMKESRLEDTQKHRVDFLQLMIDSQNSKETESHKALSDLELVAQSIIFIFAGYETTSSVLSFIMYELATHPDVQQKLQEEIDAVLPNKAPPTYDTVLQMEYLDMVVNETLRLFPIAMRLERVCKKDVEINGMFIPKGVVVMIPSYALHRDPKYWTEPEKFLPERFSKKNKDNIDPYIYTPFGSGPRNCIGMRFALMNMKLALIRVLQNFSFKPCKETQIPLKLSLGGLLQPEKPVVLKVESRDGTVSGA

[10] = target: T2, CYP2C19 (Homo sapiens, UniProt P33261); experiment: CYP inhibition, human liver microsomes; type: in vitro ADME
T2 construct: human liver microsomal cytochrome P450 isoenzymes; from tissue; host or cells: human liver microsomes
T2 sequence (P33261 whole entry): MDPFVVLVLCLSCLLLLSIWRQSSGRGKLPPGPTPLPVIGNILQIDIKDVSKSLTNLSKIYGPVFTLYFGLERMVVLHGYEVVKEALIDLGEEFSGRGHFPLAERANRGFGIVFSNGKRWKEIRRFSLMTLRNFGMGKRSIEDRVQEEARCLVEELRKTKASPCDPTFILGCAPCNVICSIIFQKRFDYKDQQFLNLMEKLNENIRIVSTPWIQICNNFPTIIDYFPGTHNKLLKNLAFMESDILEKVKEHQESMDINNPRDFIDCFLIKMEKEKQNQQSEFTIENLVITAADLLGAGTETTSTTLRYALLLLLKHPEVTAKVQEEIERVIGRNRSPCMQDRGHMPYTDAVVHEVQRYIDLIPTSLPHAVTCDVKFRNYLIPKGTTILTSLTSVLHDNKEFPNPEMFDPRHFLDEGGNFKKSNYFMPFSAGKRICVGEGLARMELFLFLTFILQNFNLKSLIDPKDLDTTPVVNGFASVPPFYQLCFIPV

[11] = target: human ether-à-go-go-related gene (hERG) channel (Homo sapiens, UniProt Q12809); experiment: hERG inhibition; type: biochemical
Sequence of human ether-à-go-go-related gene (hERG) channel (Q12809 whole entry): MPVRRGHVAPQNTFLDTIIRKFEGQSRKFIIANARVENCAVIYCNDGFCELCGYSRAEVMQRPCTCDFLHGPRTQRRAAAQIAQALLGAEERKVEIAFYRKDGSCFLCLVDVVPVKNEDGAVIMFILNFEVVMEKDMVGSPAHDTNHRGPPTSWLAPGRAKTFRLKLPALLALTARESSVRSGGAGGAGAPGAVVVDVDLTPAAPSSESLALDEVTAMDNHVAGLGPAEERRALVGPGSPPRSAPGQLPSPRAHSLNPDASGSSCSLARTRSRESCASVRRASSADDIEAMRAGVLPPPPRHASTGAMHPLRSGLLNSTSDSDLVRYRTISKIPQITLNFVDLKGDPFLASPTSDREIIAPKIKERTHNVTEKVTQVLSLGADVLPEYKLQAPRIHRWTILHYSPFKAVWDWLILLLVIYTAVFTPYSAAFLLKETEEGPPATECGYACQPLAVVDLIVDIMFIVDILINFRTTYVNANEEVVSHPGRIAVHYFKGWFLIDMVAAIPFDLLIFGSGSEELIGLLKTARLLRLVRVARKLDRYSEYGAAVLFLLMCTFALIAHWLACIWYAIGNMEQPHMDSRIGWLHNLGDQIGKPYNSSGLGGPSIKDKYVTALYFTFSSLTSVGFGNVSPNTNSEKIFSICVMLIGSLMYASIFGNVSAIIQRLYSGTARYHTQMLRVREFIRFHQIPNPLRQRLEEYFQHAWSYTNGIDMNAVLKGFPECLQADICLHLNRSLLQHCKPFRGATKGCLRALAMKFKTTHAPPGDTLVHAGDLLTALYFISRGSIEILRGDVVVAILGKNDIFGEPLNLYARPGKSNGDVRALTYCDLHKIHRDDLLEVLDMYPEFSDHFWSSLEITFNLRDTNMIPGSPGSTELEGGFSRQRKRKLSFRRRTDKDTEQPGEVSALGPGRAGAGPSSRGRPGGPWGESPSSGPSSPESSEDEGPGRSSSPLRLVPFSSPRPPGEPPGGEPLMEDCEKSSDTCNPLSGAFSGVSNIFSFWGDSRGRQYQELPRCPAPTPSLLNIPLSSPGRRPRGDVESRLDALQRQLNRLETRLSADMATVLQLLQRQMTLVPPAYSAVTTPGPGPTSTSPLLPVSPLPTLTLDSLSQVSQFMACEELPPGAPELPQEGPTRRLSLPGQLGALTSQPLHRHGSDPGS

[12] = system: solid tumor cells; experiment: Proliferation, MTT or Alamar Blue; type: cell-based; settings: Homo sapiens

CN(Cc1nc2c(N3CCOCC3)nc(-c3ccc(N)cc3)nc2n1C)c1ncc(C(=O)NO)cn1.CS(=O)(=O)O [PM, 2-(((2-(4-Aminophenyl)-9-methyl-6-(4-morpholinyl)-9H-purine-8-yl)methyl)methylamino)-N-hydroxy-5-pyrimidine-carboxamide Mesylate]
prolongation of QT interval, transient and reversible [1]: 9.6%
AUC(0-t) ([2]; 1 mg/kg, read-out: AUC0-last): 55.3 ± 3.68 ng·h/mL
half-life ([2]; 1 mg/kg, read-out: T1/2): 3.79 ± 0.511 min
Vd ([2]; 1 mg/kg): 1.43 ± 0.135 L/kg
clearance ([2]; 1 mg/kg): 301 ± 20 mL/min/kg
AUC(0-t) ([2]; 3 mg/kg, 3 mg/kg daily i.v. for 7 days, read-out: AUC0-last on day 7): 332 ± 43.6 ng·h/mL
AUC(0-t) ([2]; 3 mg/kg, read-out: AUC0-last): 248 ± 36.1 ng·h/mL
half-life ([2]; 3 mg/kg, read-out: T1/2): 4.21 ± 0.248 min
Vd ([2]; 3 mg/kg): 1.13 ± 0.241 L/kg
clearance ([2]; 3 mg/kg): 205 ± 36.4 mL/min/kg
AUC(0-t) ([2]; 10 mg/kg, read-out: AUC0-last): 1280 ± 122 ng·h/mL
half-life ([2]; 10 mg/kg, read-out: T1/2): 6.24 ± 1.57 min
Vd ([2]; 10 mg/kg): 0.948 ± 0.125 L/kg
clearance ([2]; 10 mg/kg): 131 ± 12.8 mL/min/kg
C0 ([2]; 1 mg/kg single i.v.): 736 ± 66.5 ng/mL
C0 ([2]; 3 mg/kg single i.v.): 2880 ± 566 ng/mL
C0 ([2]; 10 mg/kg single i.v.): 11500 ± 1790 ng/mL
half-life ([2]; single i.v., range over doses, read-out: half-life): 3.79 to 6.24 min
increase in AUC0-last for tenfold increase in dose ([2]; female rats): 24.4 fold
increase in AUC0-last for tenfold increase in dose ([2]; male rats): 21.7 fold
tumor AUC(0-96h) ([3]; multiple i.v. 10 mg/kg): 9068 ± 213 µg·h/L
Cmax ([3]; nude, mouse, plasma, iv, 10 mg/kg, single i.v. 10 mg/kg, read-out: Cmax in plasma): 442 ± 67.2 ng/mL
MRT ([3]; nude, mouse, plasma, iv, 10 mg/kg, single i.v. 10 mg/kg, read-out: MRT in plasma): 0.51 ± 0.06 h
half-life ([3]; nude, mouse, plasma, iv, 10 mg/kg, single i.v. 10 mg/kg, read-out: elimination half-life (T1/2) in plasma (converted)): 72.6 min
AUC(0-t) ([3]; nude, mouse, plasma, iv, single i.v. 10 mg/kg, read-out: plasma AUC(0-8h)): 174 ± 25.2 ng·h/mL
Kp ([3]; nude, mouse, tumor and plasma, intravenous, 10 mg/kg, single dose, read-out: tumor AUC0-t / plasma AUC0-t ratio): 74.4
concentration at 96 h ([3]; nude, mouse, tumor, intravenous, 10 mg/kg, single dose, read-out: drug concentration in tumor tissue after 96 hours): 69 ng/mL and ~140 nM
Cmax ([3]; nude, mouse, tumor, iv, 10 mg/kg, multiple i.v. 10 mg/kg, read-out: Cmax in tumor): 283 ± 64.8 ng/mL
MRT ([3]; nude, mouse, tumor, iv, 10 mg/kg, multiple i.v. 10 mg/kg, read-out: MRT in tumor): 34.7 ± 1.86 h
half-life ([3]; nude, mouse, tumor, iv, 10 mg/kg, multiple i.v. 10 mg/kg, read-out: elimination half-life (T1/2) in tumor (converted)): 4120 ± 3270 min
Cmax ([3]; nude, mouse, tumor, iv, 10 mg/kg, single i.v. 10 mg/kg, read-out: Cmax in tumor): 1040 ± 167 ng/mL
MRT ([3]; nude, mouse, tumor, iv, 10 mg/kg, single i.v. 10 mg/kg, read-out: MRT in tumor): 39.5 ± 4.74 h
half-life ([3]; nude, mouse, tumor, iv, 10 mg/kg, single i.v. 10 mg/kg, read-out: elimination half-life (T1/2) in tumor (converted)): 2720 min
tumor AUC(0-96h) ([3]; single i.v. 10 mg/kg): 12922 ± 498 µg/Lh
bone marrow micronucleus test result [4]: negative
apoptosis ([5]; patient A): 92.9%
apoptosis ([5]; patient B): 82.0%
apoptosis [6]: 82.1%
IC50 [7]: 622 nM
IC50 [8]: 426 nM
IC50 ([9]; midazolam as the substrate): > 10000 nM
IC50 ([9]; testosterone as the substrate): 1130 nM
PAD (Mouse): 2.5 mg/kg
MRSD from MTD, most sensitive species (beagle, dog): 3.33 mg/m²
equivalent human dose of exposure at dog HNSTD (beagle, dog): 36.88 mg/m²
IC50 [10]: > 10 µM
IC50 [11]: > 100 µM
IC50 ([12]; all lines): < 100 nM
IC50 ([12]; most tumor cell lines): < 50 nM
